According to patent publication US8598217B2, “Imidazole derivatives and their use as modulators of cyclin dependent kinases” (Astex Therapeutics Ltd., priority 2009, dated 2013):

target: CDK4/cyclin D1 (Homo sapiens (Human), UniProt P11802); test: CDK4/cyclin D1 enzymatic activity assay (Protocol A, Lance TR-FRET); format: biochemical; conditions: CDK4/cyclin D1, 175 nM pRb152, 3 μM ATP, 60 min, room temperature; read-out: IC50 against CDK4 kinase
Protocol: A 384-well microtiter Lance TR-FRET (time-resolved-fluorescence energy transfer) endpoint assay was used for CDK4/cyclin D1 kinase activity measurements. The same assay was used for IC50 determination of small molecule inhibitors. In general, the kinase reactions were carried out in 30 μL volumes in the reaction solution containing the following: 2 μL compound (in 20% DMSO), 18 uL CDK4/cyclin D1 in Assay Buffer (50 mM HEPES, pH 7.5, 5 mM MgCl2, 2 mM MnCl2, 1 mM DTT, 0.05% BSA, 0.02% Tween-20), 10 μL of the mixture of pRb152 and ATP. The final reaction mixture contains compound (inhibitor) with the concentration varying from […], 2% DMSO, 0.3 nM CDK4/cyclin D1, 175 nM pRb152, and 3 μM ATP (Amersham Pharmacia, Cat. No. 27-2056-01). All reactions were run at room temperature in 384-well white flat-bottom OptiPlates (Perkin Elmer, Cat. No. 6007290) for 60 min then were quenched by the addition of 10 μL of 120 mM EDTA. The signals were captured by the addition of 40 μL of the Detection Solution containing the following: Detection Buffer (50 mM HEPES, pH 7.5, 30 mM EDTA, 0.1% Triton x-100, 0.05% BSA), 70 ng/mL anti-phospho-pRb(S780) (Cell Signaling Technology, Cat. No. 9307S), 1 nM Lance Eu-W1024-Rabbit anti-IgG (Perkin Elmer, Cat. No. AD0082), and 20 nM SureLight™ Allophycocyanin-Streptavidin (Perkin Elmer, Cat. No. CR130-100). The resulted solutions were incubated at room temperature for 2 hours before read on the Evision Multilabel Reader (Perkin Elmer, Envision 2102-0010). Note: IC50<0.005 nM or IC50>10 μM indicates the true IC50 is out of detection range.
CDK4/cyclin D1 recombinant protein used in the enzymatic activity assay was prepared by coexpressing pDEST10-CDK4 (N-terminal His6) and pFastBacDual-GST-hCyclinD1 viruses in Sf21 cells. The overexpressed protein was purified by Ni-NTA affinity pull down to >80% pure by Sizing HPLC.

CDK4/cyclin D1, sequence (P11802 whole entry): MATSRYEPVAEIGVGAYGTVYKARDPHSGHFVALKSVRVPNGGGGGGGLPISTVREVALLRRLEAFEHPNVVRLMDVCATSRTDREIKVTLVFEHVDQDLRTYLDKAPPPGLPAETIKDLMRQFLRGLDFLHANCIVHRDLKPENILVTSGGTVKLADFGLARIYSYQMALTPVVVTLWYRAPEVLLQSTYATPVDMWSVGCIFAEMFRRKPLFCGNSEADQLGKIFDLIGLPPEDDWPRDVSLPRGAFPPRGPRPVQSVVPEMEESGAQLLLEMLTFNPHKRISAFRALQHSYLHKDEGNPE
CDK4/cyclin D1, sequence (P24385 whole entry partner): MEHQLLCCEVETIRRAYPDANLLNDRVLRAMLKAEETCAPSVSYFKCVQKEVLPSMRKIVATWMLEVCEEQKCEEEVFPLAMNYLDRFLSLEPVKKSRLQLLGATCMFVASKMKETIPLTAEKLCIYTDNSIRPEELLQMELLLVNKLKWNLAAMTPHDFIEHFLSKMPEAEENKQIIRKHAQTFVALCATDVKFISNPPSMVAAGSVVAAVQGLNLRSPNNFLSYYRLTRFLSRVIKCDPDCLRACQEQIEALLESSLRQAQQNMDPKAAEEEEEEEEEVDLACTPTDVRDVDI

IC50	SMILES
12 nM	CN(C)C1CCN(c2ccc3nc(C(=O)c4ccnc(-c5cncc6ccccc56)c4)[nH]c3n2)CC1 [Example 135, [5-(4-Dimethylamino-piperidin-1-yl)-3H-imidazo[4,5-b]pyridin-2-yl]-(2-isoquinolin-4-yl-pyridin-4-yl)-methanone]
4 nM	CN(C)C1CCN(c2ccc3nc(C(=O)c4ccc(C#N)c(-c5cncc6[nH]ccc56)c4)[nH]c3n2)CC1 [Example 140, 4-[5-(4-Dimethylamino-piperidin-1-yl)-3H-imidazo[4,5-b]pyridine-2-carbonyl]-2-(1H-pyrrolo[2,3-c]pyridin-4-yl)-benzonitrile]
67 nM	COc1ccc(F)c(F)c1-c1cc(C(=O)c2nc3ccc(N4CCC(N(C)C)CC4)nc3[nH]2)ccn1 [Example 148, [5-(4-dimethylamino-piperidin-1-yl)-3H-imidazo[4,5-b]pyridin-2-yl]-[2-(2,3-difloro-6-methoxy-phenyl)-pyridin-4-yl]-methanone]
14 nM	O=C(c1ccnc(-c2cncc3ccccc23)c1)c1nc2ccc(N3CCCNCC3)nc2[nH]1 [Example 163, (5-[1,4]Diazepan-1-yl-3H-imidazo[4,5-b]pyridine-2-yl)-(2-isoquinolin-4-yl-pyridin-4-yl)-methanone]
24 nM	O=C(c1ccnc(-c2cncc3ccccc23)c1)c1nc2ccc(N3CCNCC3)nc2[nH]1 [Example 164]
3 nM	CN(C)C1CCN(c2ccc3nc(C(=O)c4ccc(C#N)c(-c5cncc6ccccc56)c4)[nH]c3n2)CC1 [Example 165, 4-[5-(4-Dimethylamino-piperidin-1-yl)-3H-imidazo[4,5-b]pyridine-2-carbonyl]-2-isoquinolin-4-yl-benzonitrile]
8 nM	N#Cc1ccc(C(=O)c2nc3ccc(N4CCNCC4)nc3[nH]2)cc1-c1cncc2ccccc12 [Example 166, 2-Isoquinolin-4-yl-4-(5-piperazin-1-yl-3H-imidazo[4,5-b]pyridine-2-carbonyl)-benzonitrile]
195 nM	Cc1n[nH]c(C)c1-c1cc(C(=O)c2nc3ccc(N4CCC(N(C)C)CC4)nc3[nH]2)ccn1 [Example 167, [5-(4-Dimethylamino-piperidin-1-yl)-3H-imidazo[4,5-b]pyridine-2-yl]-[2-(3,5-dimethyl-1H-pyrazol-4-yl)-pyridin-4-yl]-methanone]
260 nM	Cc1n[nH]c(C)c1-c1cc(C(=O)c2nc3ccc(N4CCNCC4)nc3[nH]2)ccn1 [Example 169, [2-(3,5-Dimethyl-1H-pyrazol-4-yl)-pyridin-4-yl]-(5-piperazin-1-yl-3H-imidazo[4,5-b]pyridine-2-yl)-methanone]
548 nM	Cc1n[nH]c(C)c1-c1cc(C(=O)c2nc3ccc(N4CCCNCC4)nc3[nH]2)ccn1 [Example 170, (5-[1,4]Diazepan-1-yl-3H-imidazo[4,5-b]-pyridin-2-yl)-[2-(3,5-dimethyl-1H-pyrazol-4-yl)-pyridin-4-yl]-methanone]
12 nM	Cc1nn(C)c(C)c1-c1cc(C(=O)c2nc3ccc(N4CCC(N(C)C)CC4)nc3[nH]2)ccc1C#N [Example 173, 4-[5-(4-Dimethylamino-piperidin-1-yl)-3H-imidazo[4,5-b]pyridine-2-carbonyl]-2-(1,3,5-trimethyl-1H-pyrazol-4-yl)-benzonitrile]
5 nM	Cc1ncc2ccccc2c1-c1cc(C(=O)c2nc3cc(C(=O)N4CCNCC4)ccc3[nH]2)ccc1C#N [Example 174, 2-(3-Methyl-isoquinolin-4-yl)-4-[5-(piperazine-1-carbonyl)-1H-benzoimidazole-2-carbonyl]-benzonitrile]
77 nM	O=C(c1ccnc(-c2cncc3ccccc23)c1)c1nc2ccc(S(=O)(=O)N3CCNCC3)cc2[nH]1 [Example 182, (2-Isoquinolin-4-yl-pyridin-4-yl)-[6-(piperazine-1-sulfonyl)-1H-benzoimidazol-2-yl]-methanone]
95 nM	Cc1nn(C)c(C)c1-c1cc(C(=O)c2nc3ccc(N4CCNCC4)nc3[nH]2)ccc1C#N [Example 189, 4-(5-piperazin-1-yl-3H-imidazo[4,5-b]pyridine-2-carbonyl)-2-(1,3,5-trimethyl-1H-pyrazol-4-yl)-benzonitrile]

same assay, conditions: CDK4/cyclin D1, 175 nM pRb152, 3 μM ATP; bound stated; read-out: IC50 values against CDK4

IC50	SMILES
< 10000 nM	CNS(=O)(=O)c1ccccc1-c1cc(C(=O)c2nc3ccc(N4CCC(N(C)C)CC4)cc3[nH]2)ccn1 [Example 120, 2-{4-[6-(4-Dimethylamino-piperidin-1-yl)-1H-benzoimidazole-2-carbonyl]-pyridin-2-yl}-N-methyl-benzenesulfonamide]
< 10000 nM	Cc1n[nH]c(C)c1-c1cc(C(=O)c2nc3ccc(N4CCC(N(C)C)CC4)cc3[nH]2)ccn1 [Example 129, [6-(4-Dimethylamino-piperidin-1-yl)-1H-benzoimidazol-2-yl]-[2-(3,5-dimethyl-1H-pyrazol-4-yl)-pyridin-4-yl]-methanone]
< 10000 nM	CN(C)C1CCN(c2ncc3nc(C(=O)c4ccnc(-c5cncc6ccccc56)c4)[nH]c3n2)CC1 [Example 133, [2-(4-Dimethylamino-piperidin-1-yl)-9H-purin-8-yl]-(2-isoquinolin-4-yl-pyridin-4-yl)-methanone]
< 10000 nM	CN(C)C1CCN(c2ccc3nc(C(=O)c4ccnc(-c5cncc6ccccc56)c4)[nH]c3n2)CC1 [Example 135, [5-(4-Dimethylamino-piperidin-1-yl)-3H-imidazo[4,5-b]pyridin-2-yl]-(2-isoquinolin-4-yl-pyridin-4-yl)-methanone]
< 10000 nM	COc1ccc(F)c(F)c1-c1cncc(C(=O)c2nc3cc(CN(C)C)ccc3[nH]2)c1 [Example 159, [5-(2,3-Difluoro-6-methoxy-phenyl)-pyridin-3-yl]-(5-dimethylaminomethyl-1H-benzoimidazol-2-yl)-methanone]
< 10000 nM	Cc1nn(C)c(C)c1-c1cc(C(=O)c2nc3ccc(OC4CCNC4)nc3[nH]2)ccc1C#N (stereo not shown) [Example 160, 4-[5-(Pyrrolidin-3-yloxy)-3H-imidazo[4,5-b]pyridine-2-carbonyl]-2-(1,3,5-trimethyl-1H-pyrazol-4-yl)-benzonitrile]
< 10000 nM	Cc1nn(C)c(C)c1-c1cc(C(=O)c2nc3ccc(N4CC5(CNC5)C4)nc3[nH]2)ccc1C#N [Example 207, 4-[5-(2,6-Diaza-spiro[3.3]hept-2-yl)-3H-imidazo[4,5-b]pyridine-2-carbonyl]-2-(1,3,5-trimethyl-1H-pyrazol-4-yl)-benzonitrile]
< 10000 nM	Cc1nn(C)c(C)c1-c1cc(C(=O)c2nc3ccc(N4CCNC(C)(C)C4=O)nc3[nH]2)ccc1C#N [Example 209, 4-[5-(3,3-Dimethyl-2-oxo-piperazin-1-yl)-3H-imidazo[4,5-b]pyridine-2-carbonyl]-2-(1,3,5-trimethyl-1H-pyrazol-4-yl)-benzonitrile]
